Source: patent US8247211B2, “Glycopeptide antibiotics” (American Cyanamid Company, priority 2001, dated 2012)
Values after ≈ are worked out from the molar mass of the structure shown.

Tests used:
Test in all cases: In vitro antibacterial evaluation: minimum inhibitory concentration (MIC), broth dilution method
Type in all cases: cell-based
Enterococcus sp. = details: broth dilution, 18 hours at 35° C.
Outline: (§1)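 MIC by broth dilution in Mueller-Hinton II medium following NCCLS M7-A2. Inoculum was 5×10^5 CFU/mL and antibiotic was tested over 64-0.06 μg/mL. Gram-positive panel included clinical isolates resistant to methicillin, penicillin and/or vancomycin.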

Staphylococcus sp. = details: broth dilution, 18 hours at 35° C.; for MIC Staphylococcus aureus-SMITH (GC 4543): strain SMITH GC 4543
Outline: as §1

Streptococcus sp. = details: broth dilution, 18 hours at 35° C.
Outline: as §1

Escherichia coli = details: broth dilution, 18 hours at 35° C.
[1] = Enterococcus faecalis (GC 4553)
[2] = Streptococcus agalactiae (GC 4564)
[3] = Streptococcus pneumoniae (GC 1894)
[4] = Streptococcus pyogenes (GC 4563)

Question: Which results are given for CCCCCCC(=O)Nc1cc(CC2NC(=O)C(C(C)c3ccccc3)NC(=O)CNC(=O)C(CO)NC(=O)C(C(O)C3CNC(=N)N3C3OC(CO)C(O)C(O)C3O)NC(=O)C(C(O)C3CNC(=N)N3)NC2=O)ccc1O (stereo not drawn) [Example 16, Cyclo[glycyl-β-methylphenylalanyl-3-(heptanamido)tyrosyl-3-(2-iminoimidazolidin-4-yl)seryl-3-(3-hexopyranosyl-2-iminoimidazolidin-4-yl)serylseryl]]?
Answer: MIC Enterococcus faecalis (GC 4553) (Enterococcus sp.; [1]): 64 µg/mL (≈ 58.3 µM); MIC Enterococcus faecium (GC 4557) (Enterococcus sp.; Enterococcus faecium (GC 4557)): 16 µg/mL (≈ 14.6 µM); MIC Enterococcus faecalis (GC 4553) (Enterococcus sp.): 64 µg/mL (≈ 58.3 µM); MIC Enterococcus faecium (GC 4557) (Enterococcus sp.): 16 µg/mL (≈ 14.6 µM); MIC Staphylococcus aureus-SMITH (GC 4543) (Staphylococcus sp.): 64 µg/mL (≈ 58.3 µM); MIC Streptococcus agalactiae (GC 4564) (Streptococcus sp.; [2]): 64 µg/mL (≈ 58.3 µM); MIC Streptococcus pneumoniae (GC 1894) (Streptococcus sp.; [3]): 64 µg/mL (≈ 58.3 µM); MIC Streptococcus pyogenes (GC 4563) (Streptococcus sp.; [4]): 16 µg/mL (≈ 14.6 µM); MIC Streptococcus agalactiae (GC 4564) (Streptococcus sp.): 64 µg/mL (≈ 58.3 µM); MIC Streptococcus pneumoniae (GC 1894) (Streptococcus sp.): 64 µg/mL (≈ 58.3 µM); MIC Streptococcus pyogenes (GC 4563) (Streptococcus sp.): 16 µg/mL (≈ 14.6 µM); MIC Escherichia coli (ATCC 25922) (Escherichia coli): 32 µg/mL (≈ 29.1 µM); MIC Escherichia coli (GC 4559) (Escherichia coli): 32 µg/mL (≈ 29.1 µM); MIC Escherichia coli (GC 4560) (Escherichia coli): 8 µg/mL (≈ 7.28 µM)

Question: Which “MIC Enterococcus avium (GC 4558)” value (Enterococcus sp.; Enterococcus avium (GC 4558)) does the source give for CC(c1ccccc1)C1NC(=O)CNC(=O)C(CO)NC(=O)C(C(O)C2CNC(=N)N2C2OC(CO)C(O)C(O)C2O)NC(=O)C(C(O)C2CNC(=N)N2)NC(=O)C(Cc2ccc3oc(-c4ccc(OCc5ccccc5)cc4)nc3c2)NC1=O (stereo not drawn) [Example 31, Cyclo[3-[2-[4-(phenylmethoxy)phenyl]-1,3-benzoxazol-5-yl]alanyl-3-(2-iminoimidazolidin-4-yl)seryl-3-(3-hexopyranosyl-2-iminoimidazolidin-4-yl)serylserylglycyl-β-methyl-phenylalanyl]] here?
Answer: The value was 8 µg/mL (≈ 6.79 µM).

Question: And the “MIC Enterococcus faecalis (ATCC 29212)” value (Enterococcus sp.; Enterococcus faecalis (ATCC 29212))?
Answer: Its value is 64 µg/mL (≈ 54.3 µM).

Question: What about the “MIC Enterococcus faecalis (GC 2242)” value (Enterococcus sp.; Enterococcus faecalis (GC 2242)) of the same molecule?
Answer: The value was 64 µg/mL (≈ 54.3 µM).

Question: What about the “MIC Enterococcus faecalis (GC 2691)” value (Enterococcus sp.; Enterococcus faecalis (GC 2691)) of the same molecule?
Answer: The value was 64 µg/mL (≈ 54.3 µM).

Question: And the “MIC Enterococcus faecalis (GC 4553)” value (Enterococcus sp.; [1])?
Answer: Its value is 16 µg/mL (≈ 13.6 µM).

Question: What about the “MIC Enterococcus faecalis (GC 6189)” value (Enterococcus sp.; Enterococcus faecalis (GC 6189)) of the same molecule?
Answer: The value was 64 µg/mL (≈ 54.3 µM).

Question: What about the “MIC Enterococcus faecium (GC 2243)” value (Enterococcus sp.; Enterococcus faecium (GC 2243)) of the same molecule?
Answer: Its value is 32 µg/mL (≈ 27.2 µM).

Question: And the “MIC Enterococcus faecium (GC 4556)” value (Enterococcus sp.; Enterococcus faecium (GC 4556))?
Answer: The value was 4 µg/mL (≈ 3.39 µM).

Question: What about the “MIC Enterococcus faecium (GC 4557)” value (Enterococcus sp.; Enterococcus faecium (GC 4557)) of the same molecule?
Answer: Its value is 4 µg/mL (≈ 3.39 µM).

Question: And the “MIC Enterococcus avium (GC 4558)” value (Enterococcus sp.)?
Answer: Its value is 8 µg/mL (≈ 6.79 µM).

Question: And the “MIC Enterococcus faecalis (ATCC 29212)” value (Enterococcus sp.)?
Answer: Its value is 64 µg/mL (≈ 54.3 µM).

Question: And the “MIC Enterococcus faecalis (GC 2242)” value (Enterococcus sp.)?
Answer: Its value is 64 µg/mL (≈ 54.3 µM).

Question: And the “MIC Enterococcus faecalis (GC 2691)” value (Enterococcus sp.)?
Answer: Its value is 64 µg/mL (≈ 54.3 µM).

Question: What about the “MIC Enterococcus faecalis (GC 4553)” value (Enterococcus sp.) of the same molecule?
Answer: Its value is 16 µg/mL (≈ 13.6 µM).

Question: And the “MIC Enterococcus faecalis (GC 6189)” value (Enterococcus sp.)?
Answer: The value was 64 µg/mL (≈ 54.3 µM).

Question: What about the “MIC Enterococcus faecium (GC 2243)” value (Enterococcus sp.) of the same molecule?
Answer: The value was 32 µg/mL (≈ 27.2 µM).

Question: And the “MIC Enterococcus faecium (GC 4556)” value (Enterococcus sp.)?
Answer: Its value is 4 µg/mL (≈ 3.39 µM).

Question: What about the “MIC Enterococcus faecium (GC 4557)” value (Enterococcus sp.) of the same molecule?
Answer: The value was 4 µg/mL (≈ 3.39 µM).

Question: And the “MIC Coagulase Negative Staphylococcus (GC 4547)” value (Staphylococcus sp.)?
Answer: The value was 8 µg/mL (≈ 6.79 µM).

Question: What about the “MIC Coagulase Negative Staphylococcus (GC 4548)” value (Staphylococcus sp.) of the same molecule?
Answer: Its value is 8 µg/mL (≈ 6.79 µM).

Question: What about the “MIC Coagulase Negative Staphylococcus (GC 4549)” value (Staphylococcus sp.) of the same molecule?
Answer: The value was 16 µg/mL (≈ 13.6 µM).

Question: And the “MIC Coagulase Negative Staphylococcus (GC 4551)” value (Staphylococcus sp.)?
Answer: Its value is 16 µg/mL (≈ 13.6 µM).

Question: What about the “MIC Coagulase Negative Staphylococcus (GC 6257)” value (Staphylococcus sp.) of the same molecule?
Answer: Its value is 4 µg/mL (≈ 3.39 µM).

Question: What about the “MIC Staphylococcus aureus SMITH (GC 4543)” value (Staphylococcus sp.) of the same molecule?
Answer: The value was 16 µg/mL (≈ 13.6 µM).

Question: And the “MIC Staphylococcus haemolyticus (GC 4546)” value (Staphylococcus sp.)?
Answer: The value was 8 µg/mL (≈ 6.79 µM).

Question: What about the “MIC Staphylococcus aureus-SMITH (GC 4543)” value (Staphylococcus sp.) of the same molecule?
Answer: Its value is 16 µg/mL (≈ 13.6 µM).

Question: What about the “MIC Streptococcus agalactiae (GC 4564)” value (Streptococcus sp.; [2]) of the same molecule?
Answer: Its value is 32 µg/mL (≈ 27.2 µM).

Question: And the “MIC Streptococcus pneumoniae (ATCC 6301)” value (Streptococcus sp.; Streptococcus pneumoniae (ATCC 6301))?
Answer: The value was 16 µg/mL (≈ 13.6 µM).

Question: What about the “MIC Streptococcus pneumoniae (GC 1894)” value (Streptococcus sp.; [3]) of the same molecule?
Answer: The value was 32 µg/mL (≈ 27.2 µM).

Question: And the “MIC Streptococcus pneumoniae (GC 4565)” value (Streptococcus sp.; Streptococcus pneumoniae (GC 4565))?
Answer: The value was 64 µg/mL (≈ 54.3 µM).

Question: And the “MIC Streptococcus pyogenes (GC 4563)” value (Streptococcus sp.; [4])?
Answer: Its value is 8 µg/mL (≈ 6.79 µM).

Question: What about the “MIC Streptococcus agalactiae (GC 4564)” value (Streptococcus sp.) of the same molecule?
Answer: Its value is 32 µg/mL (≈ 27.2 µM).

Question: What about the “MIC Streptococcus pneumoniae (ATCC 6301)” value (Streptococcus sp.) of the same molecule?
Answer: Its value is 16 µg/mL (≈ 13.6 µM).

Question: What about the “MIC Streptococcus pneumoniae (GC 1894)” value (Streptococcus sp.) of the same molecule?
Answer: Its value is 32 µg/mL (≈ 27.2 µM).

Question: What about the “MIC Streptococcus pneumoniae (GC 4565)” value (Streptococcus sp.) of the same molecule?
Answer: Its value is 64 µg/mL (≈ 54.3 µM).

Question: What about the “MIC Streptococcus pyogenes (GC 4563)” value (Streptococcus sp.) of the same molecule?
Answer: Its value is 8 µg/mL (≈ 6.79 µM).

Question: What about the “MIC Escherichia coli (GC 4560)” value (Escherichia coli) of the same molecule?
Answer: The value was 32 µg/mL (≈ 27.2 µM).
